Target: T1, Am_SOD (recombinant Cu, Zn-superoxide dismutase) (Avicennia marina, UniProt Q9AXH2)
T1 construct: full-length 459 bp ORF in pET22b+ (NdeI/XhoI), 6xHis tag (printed as N-terminal); homodimer ~32-33 kDa, monomer ~16 kDa; no signal peptide found
T1 sequence (Q9AXH2 1-152): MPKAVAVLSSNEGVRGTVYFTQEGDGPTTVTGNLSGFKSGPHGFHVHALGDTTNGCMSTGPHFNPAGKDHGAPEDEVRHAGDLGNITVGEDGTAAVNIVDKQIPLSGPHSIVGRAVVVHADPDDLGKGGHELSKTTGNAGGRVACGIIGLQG
Assay: riboflavin-NBT SOD inhibition assay, A560
Format: biochemical
Source text: riboflavin-NBT SOD inhibition assay, A560 on Am_SOD (recombinant Cu, Zn-superoxide dismutase) | inhibited in a dose-dependent manner by sodium diethyldithiocarbamate trihydrate, and the IC50 was obtained at […]

`CCN(CC)C(=S)S` [DDC, sodium diethyldithiocarbamate trihydrate] gave an IC50 of 1.5 mM.

From article PMC8810880, “Comprehensive characterization and molecular insights into the salt tolerance of a Cu, Zn-superoxide dismutase from an Indian Mangrove, Avicennia marina” (Scientific Reports, 2022)
